{"source": "ChEMBL document CHEMBL5126556", "about": "“Recent advances in natural anti-obesity compounds and derivatives based on in vivo evidence: A mini-review” (Eur J Med Chem, 2022)", "key": {"Mus musculus [1]": {"test_system": "Mus musculus", "assay": "Anti-obesity activity in male C57BL/6 mouse model of high-fat diet induced obesity assessed as body weight change administered orally with 0.5 g in 500 g of HFD diet for 13 weeks relative to control", "type": "functional", "settings": "route po, at 0.5 g"}, "Mus musculus [2]": {"test_system": "Mus musculus", "assay": "Anti-obesity activity in male C57BL/6 mouse model of high-fat diet induced obesity assessed as body weight change at 50 mg/kg, po administered once a day for 9 weeks relative to control", "type": "functional"}, "Mus musculus [3]": {"test_system": "Mus musculus", "assay": "Anti-obesity activity in male C57BL/6 mouse model of high-fat diet induced obesity assessed as body weight change at 50 mg/kg, po administered once a day for 6 weeks relative to control", "type": "functional"}, "Mus musculus [4]": {"test_system": "Mus musculus", "assay": "Anti-obesity activity in female C57BL/6 mouse model of high-fat diet induced obesity assessed as body weight change at 0.005 % (w/v) administered orally for 16 weeks relative to control", "type": "functional", "settings": "route po"}, "Mus musculus [5]": {"test_system": "Mus musculus", "assay": "Anti-obesity activity in Swiss male mouse model of high-fat diet induced obesity assessed as body weight change at 10 mg/kg, po administered for 15 weeks relative to control", "type": "functional"}, "Mus musculus [6]": {"test_system": "Mus musculus", "assay": "Anti-obesity activity in ovariectomized C57BL/6 mouse assessed as body weight change at 40 mg/kg, po administered once daily for 16 weeks relative to control", "type": "functional"}, "Mus musculus [7]": {"test_system": "Mus musculus", "assay": "Anti-obesity activity in female C57BL/6 mouse model of high-fat diet induced obesity assessed as body weight change at 40 mg/kg, po administered once daily for 16 weeks relative to control", "type": "functional"}, "Mus musculus [8]": {"test_system": "Mus musculus", "assay": "Anti-obesity activity in male C57BL/6 mouse model of high-fat diet induced obesity assessed as body weight change at 150 mg/kg, po administered once a day for 4 weeks relative to control", "type": "functional"}, "Mus musculus [9]": {"test_system": "Mus musculus", "assay": "Anti-obesity activity in high-fat diet induced C57BL/6J obese mouse model assessed as body weight change at 150 mg/kg, po administered once daily for 4 weeks relative to control", "type": "functional"}, "Mus musculus [10]": {"test_system": "Mus musculus", "assay": "Anti-obesity activity in male C57BL/6 mouse model of high-fat diet induced obesity assessed as body weight change at 50 mg/kg, po administered once a day for 8 weeks relative to control", "type": "functional"}, "Mus musculus [11]": {"test_system": "Mus musculus", "assay": "Anti-obesity activity in male C57BL/6 mouse model of high-fat diet induced obesity assessed as body weight change at 25 mg/kg, ip administered once a day for 13 weeks relative to control", "type": "functional"}, "Mus musculus [12]": {"test_system": "Mus musculus", "assay": "Anti-obesity activity in high-fat diet induced obesity model of C57BL/6J mouse assessed as body weight loss at 20 mg/kg/day, po administered once daily for 14 days relative to control", "type": "functional", "settings": "time 14 day"}, "Mus musculus [13]": {"test_system": "Mus musculus", "assay": "Anti-obesity activity in high-fat diet induced obesity model of C57BL/6J mouse assessed as body weight loss at 40 mg/kg/day, ip administered once daily for 14 days relative to control", "type": "functional", "settings": "time 14 day"}, "[14]": {"assay": "Acute toxicity in po dosed C57BL/6J mouse assessed as lethal dose", "type": "organism-based", "settings": "in vivo"}, "Mus musculus [15]": {"test_system": "Mus musculus", "assay": "Anti-obesity activity in male C57BL/6 mouse model of high-fat diet induced obesity assessed as body weight change at 30 mg/kg, po administered once a day for 8 weeks relative to control", "type": "functional"}, "Mus musculus [16]": {"test_system": "Mus musculus", "assay": "Anti-obesity activity in male C57BL/6 mouse model of high-fat diet induced obesity assessed as body weight change at 0.002 mg/kg, ip administered once a day for 8 weeks relative to control", "type": "functional"}, "Mus musculus [17]": {"test_system": "Mus musculus", "assay": "Anti-obesity activity in male C57BL/6 mouse model of high-fat diet induced obesity assessed as body weight change at 1.25 mg/kg, ip administered once a day for 21 days relative to control", "type": "functional", "settings": "time 21 day"}}, "data": [{"smiles": "O=c1c(-c2ccc(O)c(O)c2)coc2cc(O)ccc12", "values": [{"measurement": "Activity", "setting": "Mus musculus [1]", "result": 63.5, "unit": "%"}]}, {"smiles": "CC1(C)C=Cc2cc(-c3coc4cc(O)ccc4c3=O)ccc2O1", "note": "[ISOWIGHTEONE]", "values": [{"measurement": "Activity", "setting": "Mus musculus [2]", "result": 8.3, "unit": "%"}]}, {"smiles": "C[C@H](CC(=O)C[C@@H](C)[C@H]1C[C@H](O)[C@@]2(C)C3=C(C(=O)C[C@]12C)[C@@]1(C)CCC(=O)C(C)(C)[C@@H]1C[C@@H]3O)C(=O)O", "note": "[GANODERIC ACID A]", "values": [{"measurement": "Activity", "setting": "Mus musculus [3]", "result": 17.4, "unit": "%"}]}, {"smiles": "CC1(C)CC[C@]2(C(=O)O)CC[C@]3(C)C(=CC[C@@H]4[C@@]5(C)CC[C@H](O)C(C)(C)[C@@H]5CC[C@]43C)[C@@H]2C1", "note": "[OLEANOLIC_ACID]", "values": [{"measurement": "Activity", "setting": "Mus musculus [4]", "result": 45, "unit": "%"}, {"measurement": "Activity", "setting": "Mus musculus [5]", "result": 71.9, "unit": "%"}]}, {"smiles": "COc1cc(O)c2c(=O)oc(-c3ccccc3)cc2c1CC=C(C)C", "values": [{"measurement": "Activity", "setting": "Mus musculus [6]", "result": 17.9, "unit": "%"}, {"measurement": "Activity", "setting": "Mus musculus [7]", "result": 28.6, "unit": "%"}]}, {"smiles": "CC1(C)C=Cc2c(ccc3c2OC[C@@H](c2ccc(O)cc2O)C3)O1", "note": "[GLABRIDIN]", "values": [{"measurement": "Activity", "setting": "Mus musculus [8]", "result": -16.7, "unit": "%"}, {"measurement": "Activity", "setting": "Mus musculus [9]", "result": -13.2, "unit": "%"}]}, {"smiles": "COc1cc(O)c(C(=O)[C@@H]2[C@H](CC=C(C)C)C(C)=CC[C@H]2c2ccccc2)c(O)c1", "note": "[PANDURATIN A]", "values": [{"measurement": "Activity", "setting": "Mus musculus [10]", "result": 15, "unit": "%"}]}, {"smiles": "COc1ccc(-c2coc3cc(O)ccc3c2=O)cc1", "note": "[FORMONONETIN]", "values": [{"measurement": "Activity", "setting": "Mus musculus [10]", "result": 18.8, "unit": "%"}]}, {"smiles": "CC(C)(O)[C@@H]1CC[C@](C)([C@H]2[C@@H](O)C[C@@]3(C)[C@@H]4C[C@H](O[C@@H]5O[C@H](CO)[C@@H](O)[C@H](O)[C@H]5O)[C@H]5C(C)(C)[C@@H](O[C@@H]6OC[C@@H](O)[C@H](O)[C@H]6O)CC[C@@]56C[C@@]46CC[C@]23C)O1", "values": [{"measurement": "Activity", "setting": "Mus musculus [11]", "result": 25.4, "unit": "%"}]}, {"smiles": "CC1(C)[C@@H](O)C(O)=C[C@]2(C)[C@H]3C(=O)C=C4[C@@H]5C[C@@](C)(C(=O)O)CC[C@]5(C)CC[C@@]4(C)[C@]3(C)CC[C@@H]12", "values": [{"measurement": "Activity", "setting": "Mus musculus [12]", "result": 26, "unit": "%"}, {"measurement": "Activity", "setting": "Mus musculus [13]", "result": 20, "unit": "%"}, {"measurement": "LD50", "setting": "[14]", "result": 940, "unit": "mg/kg"}]}, {"smiles": "CC1(C)[C@@H](O)CC[C@]2(C)[C@H]3C(=O)C=C4[C@@H]5C[C@@](C)(C(=O)O)CC[C@]5(C)CC[C@@]4(C)[C@]3(C)CC[C@@H]12", "note": "[ENOXOLONE]", "values": [{"measurement": "Activity", "setting": "Mus musculus [15]", "result": 30.2, "unit": "%"}]}, {"smiles": "CC1=C(CO)C(=O)O[C@@H]([C@@H](C)[C@H]2CC[C@H]3[C@@H]4C[C@H]5O[C@]56[C@@H](O)C=CC(=O)[C@]6(C)[C@H]4CC[C@]23C)C1", "note": "[WITHAFERIN A]", "values": [{"measurement": "Activity", "setting": "Mus musculus [16]", "result": 30.5, "unit": "%"}, {"measurement": "Activity", "setting": "Mus musculus [17]", "result": 0, "unit": "%"}]}]}
